From patent US10066004B2 (ARIZONA CANCER THERAPEUTICS, LLC, priority 2010, dated 2018)
pKd: −log10 of the molar value. Like-named read-outs stand apart in the source and are kept apart here. Positions of bridges follow the written chain, without caps; N, C: chain ends. Non-standard residues stand in square brackets, D forms with d. Residues, ends and D or L forms follow the SMILES beside them. No end group written: not given here. R8 = C=CCCCCCC[C@@](C)(N)C(=O)O; S5 = C=CCCC[C@](C)(N)C(=O)O

Key:
[1] = tested on: patient-derived glioma lines (BT145, BT147, GB16, GB7, GB42); test: Viability of patient-derived GBM cells; assay type: cell-based
From the text: FIG. 13A and FIG. 13B show treatment of patient-derived GBM cells with various EGFR inhibitor peptides.
(§1) EGFR is amplified or mutated in more than 40% of glioblastoma multiforme (GBM) tumors. Referring to FIG. 13-14, inhibitor peptides of the present invention were used to treat GBM cells and tumors.

[2] = tested on: GBM tumors; test: In vivo tumor growth, daily subcutaneous injections of SAH-EJ1; set-up: species or system mice; settings: 10 mg/kg daily subcutaneous, vs control mouse
From the text: as §1

[3] = biological target: Ecyl EGFR peptide; test: ITC binding experiments
[4] = tested on: SKOV3 cells; test: MTT killing of erbB2 positive ovarian cancer cells, one hour treatment; assay type: cell-based
Protocol: The erbB2 positive ovarian cancer cell line, SKOV3 was treated with SAH5-EJ1 for one hour with concentrations between 10 uM and 40 uM.

[5] = Peptide solubility; assay type: physicochemical
Protocol: The EJ peptides were synthesized by GenScript (Scotch Plains, N.J.), delivered lyophilized, and stored at −20° C. Peptides were resuspended as needed at 1 mmol/1 in water and stored for up to 2 weeks at 4° C. EJ1 peptide sequences are shown conjugated to the PTD4 domain ([…] (SEQ ID NO: 110)) in FIG. 6c.

[6] = tested on: MDA-MB-468 cells; settings: MDA-MB-468, 20 uM peptide, 3 days (FIG. 1)
Protocol: Inhibitor peptides were evaluated on their ability to inhibit growth of triple-negative breast cancer cells MDA-MB-468 (20 uM peptide treatment). […] SEQ ID NO: 13 is […] SEQ ID NO: 14 is […] SEQ ID NO: 15 is […] SEQ ID NO: 16 is […] SEQ ID NO: 17 is […] SEQ ID NO: 18 is […] SEQ ID NO: 19 is […] SEQ ID NO: 20 is […] SEQ ID NO: 21 is […] SEQ ID NO: 22 is […] SEQ ID NO: 23 is […] SEQ ID NO: 24 is […] SEQ ID NO: 25 is […]
(§2) Peptide designations are indicated in the right column. Changes from EJ1 in EJ2-11 are denoted in the second column from the right. (d-j) Cell lines were treated daily with 20 μmol/l EJ1, 20 μmol/l CP, or vehicle (water) for 3 days unless otherwise noted, and cell viability was determined by the MTT assay. Growth rates for vehicle-treated cells were set to 100%, and CP and EJ1 rates were adjusted accordingly. *P<0.05, **P<0.01, ***P<0.001 (Student's t-test). Error bars, mean±SD. (From Hart et al., 2013, Molecular Therapy 21(11):1996-2007, the disclosure of which is incorporated herein in its entirety.)
To do this, we created cell-penetrating peptides to act as dominant-negative “decoys,” thereby inhibiting endogenous jxm interactions. Peptides specific for jxm subdomains were synthesized downstream of the protein transduction domain-4 (PTD4; FIG. 6). Next, the effect of peptide treatment on cell viability was analyzed on the breast cancer cell line MDA-MB-468 by MTT (3-[4,5-dimethylthiazol-2-yl]-2,5-diphenyl tetra-zolium bromide) analysis after 3 days of treatment.
(§3) Protein lysate preparation, immunoprecipitation, and western blotting were performed as described previously. For cross-linking, cells were first incubated according to manufacturer instructions with 3 μmol/l DMS, a membrane-permeable, noncleavable, cross-linking agent (Thermo Scientific, Waltham, Mass.). Cells were analyzed both by the MTT assay following manufacturer's instructions (Sigma) and using a U-Quant Spectrophotometer (Bio-TEK Instruments, Winooski, Vt.).

[7] = tested on: AsPC1 cells; settings: human, 3 day, 20 μmol/l
Protocol: as §2, §3

[8] = tested on: MDA-MB-231 cells; settings: human, 3 day, 20 μmol/l
Protocol: as §2, §3

[9] = tested on: MIA PaCa-2 cells; settings: human, 3 day, 20 μmol/l
Protocol: as §2, §3

[10] = tested on: T47D cells; settings: human, 3 day, 20 μmol/l
Protocol: as §2, §3

[11] = tested on: MMTV-pyMT murine model of breast cancer; test: Tumor growth and lung metastasis in MMTV-pyMT transgenic mice; assay type: in vivo, mouse; settings: 20 μg/g body weight i.p. daily
Protocol: (a) MMTV-PyMT mice were allowed to develop tumors of 50 mm^3 before being treated once daily (i.p. injection) with indicated doses of Ctrls (20 μg/g CP5 (n=3), PBS (n=2)) and EJ1 (10 μg/g (n=6), 15 μg/g (n=1), and 20 μg/g (n=7), or twice-daily doses of 40 μg/g (n=3)). Peaks represent average total tumor burden growth rate in mm^3 per day for each treatment. Error bars, mean±SD. *P<0.05; **P<0.005, Student's t-test. (b) Control (12 mice (20 μg/g CP5 (n=5), PBS (n=7), n=100 tumors) vs. 20 μg/g EJ1-treated (eight mice, n=72 tumors) individual tumor growth rates and representative tumor images (insets). Mean denoted by horizontal line. **P<0.005, Student's t-test. (c) Mice were treated with 10, 15, or 20 μg/g body weight EJ1 or control for 21 days and tumors were measured twice weekly. Box plots are shown for day 0 (10 μg/g EJ1: n=6 mice, 21 tumors; 15 μg/g EJ1: n=1 mouse, two tumors; 20 μg/g EJ1: n=8 mice, 24 tumors; Ctrls: n=12 mice, 41 tumors) and final day (10 μg/g EJ1: n=6 mice, 46 tumors; 15 μg/g EJ1: n=1 mouse, nine tumors; 20 μg/g EJ1: n=8 mice, 72 tumors; Ctrls: n=12 mice, 100 tumors). […]
Additionally, many resected EJ1-treated tumors were necrotic in appearance compared with those in controls (FIG. 11b (insets)). […] The MMTV-pyMT transgenic mice present with lung metastasis; we therefore evaluated the effects of EJ1 on lung metastasis. […]

## CC[C@H](C)[C@H](NC(=O)[C@H](Cc1c[nH]cn1)NC(=O)[C@H](CCCNC(=N)N)NC(=O)[C@H](CCCNC(=N)N)NC(=O)[C@H](CCCNC(=N)N)NC(=O)[C@H](CCSC)NC(=O)[C@H](Cc1ccccc1)NC(=O)[C@H](C)NC(=O)[C@H](CCCNC(=N)N)NC(=O)[C@H](C)NC(=O)[C@H](CCC(N)=O)NC(=O)[C@H](CCCNC(=N)N)NC(=O)[C@H](C)NC(=O)[C@H](C)NC(=O)[C@H](C)NC(=O)[C@H](CCCNC(=N)N)NC(=O)[C@H](C)NC(=O)[C@@H](N)Cc1ccc(O)cc1)C(=O)N[C@]1(C)CCCCCCC=CCCC[C@@](C)(C(=O)N[C@@H](CC(C)C)C(=O)N[C@@H](CC(C)C)C(=O)N[C@@H](CCC(N)=O)C(=O)N[C@@H](CCC(=O)O)C(=O)N[C@@H](CCCNC(=N)N)C(=O)N[C@@H](CCC(=O)O)C(=O)O)NC(=O)[C@H](CCCNC(=N)N)NC(=O)[C@H](CC(C)C)NC(=O)[C@H]([C@@H](C)O)NC(=O)[C@H](CCCNC(=N)N)NC(=O)[C@H](CCCCN)NC(=O)[C@H](CCCNC(=N)N)NC1=O [SAH-EJ1] (H-YARAAARQARAFMRRRHI[R8]RKRTLR[S5]LLQERE-OH; staple 19-26; N-terminus and C-terminus assumed)
[1]; BT145 and BT147 (FIG. 13A)
  cell viability of patient-derived glioma lines: decrease in viability
[1]; GB16, GB7, GB42 and BT147, 24 hr treatment (FIG. 13B)
  cell viability of patient-derived glioma lines: decrease in viability
[2]
  tumor growth in vivo: growth of the tumor is reduced
[2]; listed as stapled EJ
  tumor growth in vivo: decrease tumor growth
[3]; 100 uM and 150 uM experiments, read-out: Kd, average of both experiments
  pKd: ~5.55
[3]; peptide at 100 uM, target at 500 uM, read-out: Kd
  pKd: 5.60
[3]; peptide at 150 uM, target at 500 uM, read-out: Kd
  pKd: 5.49

## SAH5-EJ1: stapled EJ1: PTD4 domain combined with SEQ ID NO: 103 (YARAAARQARAFMRRRHIVRKR[R8]LRRLLQ[S5]RE; staple 23-30 (inferred))
[4]; SKOV3, one hour of treatment
  concentration inducing optimal cell killing: 5.0 to 10.0 µM
[4]; SKOV3, one hour, 10 uM to 40 uM
  cell killing (MTT): all cells were killed

## YARAAARQARAFMAAAHIVAAATLAALLQERE [EJ8]
[5]
  solubility of peptide: insoluble

## YARAAARQARAFMRRRHIVRKRTLRRLLQERE [EJ1]
[6]
  survival rate of cells after 3 days: 5%
[7]
  reduction of cellular viability: 10%
[8]
  reduction of cellular viability: 10%
[9]
  reduction of cellular viability: 1%
[10]
  reduction of cellular viability: 60%
[11]
  toxicity (weight loss, grooming behavior, gross changes to organs upon necropsy): no toxicity
